Data on 28 molecules can be found in PubChem BioAssay (NCI).

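Exposure lasted 48 hours, with cells grown in 96-well plates and compounds tested at five concentrations. GI50: concentration for 50% inhibition of growth. TGI marks complete inhibition of growth.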

This experiment deals with MDA-MB-468 breast. As to the kind of experiment: NCI anticancer screen, dose series, 48 h.
On to `Nc1ncc(-c2cnn(CCO)c2)c2scc(-c3ccc(NC(=O)Nc4cccc(F)c4)cc3)c12`, for which the GI50 is 443 nM and the TGI came out at 5660 nM.
On to `COC(=O)Nc1nc2ccc(Oc3ccc(NC(=O)Nc4ccccc4)cc3)cc2[nH]1`, for which the GI50 is 56.1 nM and the TGI amounted to 489 nM.
For `CCOC(=O)Sc1ncnc2nc[nH]c12` the same measures were 350 nM and greater than 100000 nM.
Take `CCOC(=O)c1cc(/C(=N\O)c2cc(OC)c(OC)c(OC)c2)n2cc(C)cc(C)c12`: the GI50 is 1460 nM and the TGI worked out at 4790 nM.
The like results for `CC/C=C\C[C@@H]1C/C=C2/C(=O)C=C[C@H]2C/C=C\CCCC(=O)O1` were, in that order, 976 nM and 2580 nM.
The like results for `O=C(c1cccc(O)c1O)c1cn(Cc2ccc(F)cc2)c2cccc(O)c12` were, in that order, 5460 nM and 21700 nM.
Regarding `COc1cc(C2=NN(C(C)=O)C(c3ccc(OC(C)=O)cc3OC(C)=O)O2)c(OC(C)=O)c2ccccc12` (stereo unspecified), the GI50 is 1060 nM and the TGI was found to be 6580 nM.
As to `O=C(N/N=C/c1cccc(O)c1O)c1ccccc1`, the GI50 was 1290 nM and the TGI is 11100 nM.
Regarding `COc1ccc(C(=O)COc2cccc(/C=C3\COc4ccc5ccccc5c4C3=O)c2)cc1`, the GI50 is 2360 nM and the TGI is 12300 nM.
In the case of `NC(=S)N/N=C/c1ccc(OC(=O)COc2ccc(Cl)cc2)cn1`, the GI50 was 2540 nM and the TGI stood at 9590 nM.
Turning to `COc1cc(NC(=O)c2cc(O)c(CC=C(C)C)c(O)c2)cc2c1O[C@]1(C)CC[C@@H](O)C(C)(C)[C@H]1C2`, the GI50 was 3420 nM and the TGI was found to be 19800 nM.
Regarding `COc1ccc(OC)c(/C=C/C(=O)N/N=C/c2ccc(Cl)cc2)c1`, the GI50 is 76.8 nM and the TGI amounted to 363 nM.
For `CCCCN=C(N)c1ccc(OCCSCCOc2ccc(C(N)=NCCCC)cc2)cc1`, the GI50 was 360 nM and the TGI stood at 3870 nM.
As to `CC1CN1CC(O)C(O)CN1CC1C` (stereo unspecified), the GI50 is 278 nM and the TGI worked out at 1680 nM.
With `O=C(CCl)Nc1ccc(Cl)cc1`, the GI50 is 2340 nM and the TGI came out at 6280 nM.
For `CCS(=O)(=O)c1ccc(OC)c(Nc2ncc(-c3cccc(OC)c3)o2)c1` the same measures were 10500 nM and greater than 25000 nM.
For the molecule `CCN(CC)c1ccc(C(=N)c2ccc(N(CC)CC)cc2)cc1`, the GI50 was 312 nM and the TGI was 1430 nM.
Regarding `CCC#CC[C@H]1C/C=C2/C(=O)C=C[C@@H]2C/C=C\CCCC(=O)O1`, the GI50 was 928 nM and the TGI turned out to be 5470 nM.
The like results for `CN(C)c1ccc(N)cc1` were, in that order, 2810 nM and 8700 nM.
On to `O=C(Nc1ccc(Cl)cc1)c1cc(-c2ccc(F)cc2)c2sc(=O)[nH]c2n1`, for which the GI50 was 687 nM and the TGI came to 4970 nM.
Regarding `COc1ccc(C(=O)c2cc(C)c(OC)c(C)c2)c(OC)c1N(C(=O)C(Cl)Cl)C(=O)C(Cl)Cl`, the GI50 was 25.9 nM and the TGI came to 92.6 nM.
Regarding `Cc1cc(C)c(C(=O)CC(=O)c2cccnc2)c(C)c1`, the GI50 was 8680 nM and the TGI turned out to be 49800 nM.
With `CCS(=O)(=O)c1ccc(OC)c(Nc2ncc(-c3cccc(C(C)=O)c3)o2)c1`, the GI50 was 3460 nM and the TGI was greater than 25000 nM.
Turning to `COc1cc(OC)c(/C=C/C(=O)c2c(OC)cccc2OC)c(OC)c1`, the GI50 is 394 nM and the TGI came out at 3160 nM.
As for `CCN1C(=O)CNc2ncc(-c3ccc(-c4ncn[nH]4)nc3C)nc21`, the GI50 is 196 nM and the TGI was 1170 nM.
Regarding `CC(C)c1ccc(C(=O)Nc2sc3c(c2C(N)=O)CCC(=O)C3)cc1`, the GI50 is 453 nM and the TGI came to 1810 nM.
`COc1cc[nH]c1/C=C1\C(=O)Nc2ccccc21`: the GI50 was 1110 nM and the TGI was greater than 25000 nM.
As for `Cc1ccc(C(=NN=C(N)N)c2ccc(C)cc2)cc1`, the GI50 is 232 nM and the TGI was determined as 750 nM.
